US20060167276A1, “Clausenamide c5-hydroxyl derivatives and n-substituted derivatives, processes for their preparation, its composition and use” (priority 2002, published 2006)

Key:
[1] = tested on: C17-2 mouse brain neural stem cells; assay: Cell proliferation of mouse brain neural stem cells (MTT, OD 490 nm); type: cell-based; settings: for Cell proliferation %: control group = 100%; for promotion effects on cell proliferation of mouse brain neural stem cells: at doses of 0.1 μM and 1 μM
Experimental: C17-2 mouse brain neural stem cells (C17-2 cells) were continuously cultured in 1640 medium with 10% horse serum and 10% fetal bovine serum at 5% CO2 and 37° C., dissociated to single cell suspension by 0.1% trypsin solution, centrifuged at 1,000 rpm×5 min and rinsed with medium. The cells were seeded in a 96-well plate, 1×10^3 cells per well, 3 well per group, continuously cultured. After 24 hours, the test compounds were added, doses of each of the C5-hydroxyl substituted clausenamides and N-substituted clausenamide derivatives were 0.1 μM, 1 μM and 10 μM respectively. The growth situation of the cells was observed under a microscope, once daily. At the 4th day, media in each well were pipetted, phosphate buffer solution containing MTT was added. 4 Hours later, the fluid was discarded, and a DMSO solution was added. The cells were incubated at 37° C. for 10 min under shaken. OD values on 490 nm of each well were detected. Set the growth rate of the control group as 100%, and the growth rates of each dose were given by comparison with the control group and t-tested.

rat hippocampus = assay: LTP / synaptic transmission in rat hippocampus (population spike amplitude, dentate gyrus); type: in vivo; settings: for Relative PS (PSA %): lateral ventricle, prior administration = 100; for effects on synaptic transmission: P<0.05 vs. control, n=5
From the text: Male adult SD Rats (5 per group) were anesthetized with 20% (w/v) urethane carbamate (1.0 g·kg^−1, ip) and fixed in a stereotaxic head holder. According to the reference of Pellegrino stereotaxic spectrum of rat, recording electrodes (stainless steel needle of 0.2 mm diameter were insulted except for 0.2 mm tip) were placed in the dentate gyrus granule cell layer. The stimulating electrodes (two stainless steel needles of 0.15 mm diameter coated with Teflon except for the 0.2 mm tip, and the distance between two needles was 0.5 mm) were planted between the fibre of perforant path (PP) in rat. Continuous pulse was provided by electronic stimulator, and delivered to PP through stimulus isolator and stimulating electrodes. Electrode depth was then adjusted until a typical excitatory postsynaptic potential (EPSP) was observed. Electric current was magnified by amplifier and collected by computer, then processed by DataWave software. The stimulus intensity was adjusted to produce population spike (PS) with a slope that was ≈50% of the maximum. Single-pulse test stimuli were at an interval of 30 sec during the experiment. Population spike amplitude (PSA) was recorded and the relatively percent of PSA was calculated according to the formula (PSA/basic value).

[2] = dose 10^−5 M, MTT at 4th day, OD 490 nm
[3] = dose 10^−6 M, MTT at 4th day, OD 490 nm
[4] = dose 10^−7 M, MTT at 4th day, OD 490 nm

Row | Compound | Result (OD value) [1, 2] | Cell proliferation % ([1]; dose 10^−5 M) [%] | Result (OD value) [1, 3] | Cell proliferation % ([1]; dose 10^−6 M) [%] | Result (OD value) [1, 4] | Cell proliferation % ([1]; dose 10^−7 M) [%] | Relative PS (PSA %) (rat hippocampus; 15 min after administration) [%] | Relative PS (PSA %) (rat hippocampus; 30 min after administration) [%] | Relative PS (PSA %) (rat hippocampus; 45 min after administration) [%] | Relative PS (PSA %) (rat hippocampus; 60 min after administration) [%] | effects on synaptic transmission (rat hippocampus) | effects on cell proliferation of mouse brain neural stem cells (conclusion) [1] | promotion effects on cell proliferation of mouse brain neural stem cells [1] | Result (OD value) ([1]; positive control, dose 5 mg/L) | Cell proliferation % ([1]; positive control, dose 5 mg/L) [%]
1 | CN1C(=O)C(O)C(c2ccccc2)C1=Cc1ccccc1 (single isomer, unassigned) [(−)Δ^5,6-I, (−)-Δ^5,6-clausenamide] | 0.076 ± 0.016 | 55.47 | 0.165 ± 0.011 | 120.44 | 0.246 ± 0.005 | 179.56 | 123.37 ± 14.80 | 138.79 ± 10.94 | 158.89 ± 23.04 | 181.50 ± 35.88 | significantly upstanding effects | – | – | – | –
2 | CN1C(=O)[C@H](O)[C@@H](c2ccccc2)[C@@]1(O)[C@H](O)c1ccccc1 [(+)II3, (+)-(3R,4R,5R,6R)-5-hydroxy-clausenamide] | 0.131 ± 0.009 | 95.62 | 0.199 ± 0.024 | 145.26 | 0.253 ± 0.020 | 184.67 | 91.74 ± 17.21 | 117.87 ± 14.93 | 161.14 ± 13.94 | 188.03 ± 5.28 | significantly upstanding effects | significant effects | significant promotion effects | – | –
3 | CC(=O)OCN1C(=O)C(O)C(c2ccccc2)C1C(O)c1ccccc1 (single isomer, unassigned; (-)) [(−)III3, N-acetoxymethylene-norclausenamide] | 0.061 ± 0.007 | 44.53 | 0.147 ± 0.021 | 107.30 | 0.217 ± 0.024 | 158.39 | 90.33 ± 16.11 | 100.15 ± 7.48 | 118.33 ± 25.07 | 141.37 ± 30.83 | – | – | – | – | –
4 | CN1C(=O)[C@H](O)[C@@H](c2ccccc2)[C@]1(O)[C@H](O)c1ccccc1 [(−)II2, (−)-(3R,4R,5S,6R)-5-hydroxy-clausenamide] | 0.156 ± 0.095 | 113.87 | 0.163 ± 0.038 | 118.98 | 0.233 ± 0.033 | 170.07 | 110.55 ± 7.27 | 103.09 ± 10.12 | 94.49 ± 10.53 | 88.40 ± 14.42 | – | – | – | – | –
5 | NC(=O)CN1C(=O)C(O)C(c2ccccc2)C1C(O)c1ccccc1 (racemic) [(±)III1, N-(aminocarbonyl-methylene)-norclausenamide] | 0.104 ± 0.009 | 75.91 | 0.205 ± 0.006 | 149.64 | 0.240 ± 0.017 | 175.18 | 85.24 ± 17.41 | 79.82 ± 22.33 | 96.00 ± 19.78 | 117.37 ± 13.49 | – | – | – | – | –
6 | fibroblast growth factor [FGF, reference compound] | – | – | – | – | – | – | – | – | – | – | – | – | – | 0.340 ± 0.035 | 248.17
7 | CC(=O)OCN1C(=O)C(O)C(c2ccccc2)C1C(O)c1ccccc1 (racemic) [(±)III3, N-acetoxymethylene-norclausenamide] | – | – | – | – | – | – | – | – | – | – | significantly upstanding effects | – | – | – | –
8 | CN1C(=O)[C@H](O)[C@@H](c2ccccc2)[C@@]1(O)[C@@H](O)c1ccccc1 [(−)II1, (−)-(3R,4R,5R,6S)-5-hydroxy-clausenamide] | 0.126 ± 0.016 | 91.97 | 0.236 ± 0.049 | 172.26 | 0.256 ± 0.020 | 186.86 | – | – | – | – | – | significant effects | significant promotion effects | – | –
